Test results as given in patent US8759537B2, “3H-imidazo [4, 5-C] pyridine-6-carboxamides as anti-inflammatory agents” (Boehringer Ingelheim International GmbH, priority 2010, dated 2014).
pIC50: −log10 of the molar value.

Tests used:
mPGES-1 [1] = biological target: T1, mPGES-1 (Homo sapiens (Human), UniProt O14684); test: A549 cell-based assay (PGE2 formation, IL-1β stimulated, 50% human serum); conditions: A549 cells, IL-1β 5 ng/ml, read-out: mPGES-1 inhibitory effect in the cell assay, IC50
T1 sequence (O14684 whole entry): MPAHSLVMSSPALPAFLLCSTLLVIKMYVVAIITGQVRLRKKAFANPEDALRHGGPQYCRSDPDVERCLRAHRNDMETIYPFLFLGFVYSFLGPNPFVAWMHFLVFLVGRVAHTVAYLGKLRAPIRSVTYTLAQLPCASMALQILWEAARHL
Protocol: Although the enzymatic assay is a high throughput assay the disadvantage is that it uses a recombinant protein which is not in its natural environment. Accordingly a cellular assay was established in which a cell line of human origin (A549) expressing the mPGES-1 protein was used. In addition in order to mimic the situation in humans in which compounds can be bound to plasma proteins 50% human serum is added in the assay.
Cells were detached using Trypsin-EDTA. A549 cells were seeded in a 384-well collagene plate at a density of 7000 cells/well (50 μl) in F-12 medium containing 1% Penicillin-Streptomycin and 50% human serum. The cells were allowed to attach for 3-4 h. […] The total volume is 100 μl.
Concentrations of PGE2 in the cell free medium (10 μl) were measured using a commercially available HTRF kit from Cisbio (as described above). The PGE2 formation in the absence of test compound was taken as 100%.
IC50 values were derived from at 6-8 point titrations using conventional software.

mPGES-1 [2] = biological target: T1, mPGES-1; test: mPGES-1 enzyme assay (HTRF detection of PGE2); format: biochemical; conditions: recombinant human mPGES-1 microsomes, PGH2 2 μM; read-out: mPGES-1 inhibitory effect in the enzyme assay, IC50
Protocol: Microsomes from Rosetta E. coli bacteria expressing recombinant human mPGES-1 can be derived as described below:
Inoculate 5 ml LB with Ampicilin (50 μg/ml) and Chloramphenicol (34 μg/ml) with bacteria from freeze culture. Incubate 8 h at 37° C. with 200 rpm. Thereafter, inoculate 500-1000 ml LB containing Amp and Chloro with the 5 ml on culture and grow to OD640 of 0.8-1.0. Chill the culture to +4° C. before induction. Induce the culture with IPTG at a final concentration of 400 μM. Express the protein at room temp 18-23° C. with 200 rpm shaking over night.
The following steps can be performed on the following day: • 1. Spin down the cells in 250 ml centrifuge flasks for 15 min at 7000 rpm (Beckmann Coulte Avanti J-E centrifuge) • 2. Dissolve the pellet from 250 ml culture in 12.5 ml homogenization buffer • 3. (15 mM Tris-HCL pH8, 1 mM EDTA pH8, […], 2.5 mM GSH, 1 Tablet Protease inhibitor per 50 ml buffer) • 4. […] Add 2.5 ml MgCl2 (100 mM) and DNase 12.5 μl (0.8 mg/ml) and incubate on ice for 30 min • 6. Spin down the bacteria debris and save the supernatant, 7000 rpm for 15 min • 7. Isolate the protein containing membranes in the supernatant by ultracentrifugation 120000×g for 2 hour at 4° C. (Sorvall T880 rotor). • 8. Discard the supernatant and dissolve the pellet in 20 mM Potassium phosphate buffer pH7.4 (KH2PO4 and K2HPO4) buffer by sonication (5×10 s, 30% of a 50 W sonifier) and aliquot the enzyme and store aliquots at −80° C.
Before each experiment is performed an aliquot of the enzyme is thawed and it can then be dissolved in 0.1 M Potassium phosphate buffer pH7.4 (KH2PO4 and K2HPO4) buffer containing 2.5 mM GSH.
The aim of this assay is to determine the affinity of a test compound for the mPGES-1 enzyme.
47 μl of recombinant human mPGES-1 (˜0.5 μg protein/well) containing microsomal suspension in a buffer containing GSH, (2.5 mmol/L L-Glutathione reduced, dissolved in 0.1 mol/L Phosphat Buffer pH 7.4) is dispensed in a 384-well plate and thereafter 1 μl of the test compound(s) is/are added and incubated for 25 minutes at room temperature. The enzyme reaction is started by the addition of 2 ul PGH2 (final conc. 2 μM) dissolved in water-free Diglyme. After 60 seconds the reaction is terminated by addition of a stop solution containing FeCl2 (10 μL 0.074 mol/l FeCl2). The samples are diluted between 1:25 in PBS (Phosphate Buffered Saline). 10 μl of the diluted samples are transferred to 384-well low volume plate. In order to quantify the amount of PGE2 that has been formed, a homogenous time resolved fluorescent (HTRF) detecting of PGE2 has been performed using a commercially available kit from Cisbio according to the manufactures recommendation. […] Briefly, the diluted samples are mixed with 5 μl PGE2-d2 conjungate and 5 μl anti-PGE2 cryptate conjungate. After an incubation period of the plates over night, the fluorescence is measured by the use of an appropriate microplate reader.
The quantification plate contains also wells with different concentrations of PGE2 as calibration curve for the calculation of the PGE2 concentrations from the HTRF ratio values.
From all mPGES enzyme assay the background is subtracted and the IC50 is calculated over a nonlinear regression with conventional software.

SMILES | pIC50 (mPGES-1 [1]) | pIC50 (mPGES-1 [2])
Cn1c(Nc2c(Cl)ccc(CNC(=O)C(C)(C)C)c2Cl)nc2cc(C(=O)N[C@H]3CC[C@H](C(F)(F)F)CC3)c(OCC(F)F)cc21 [Example 1, N-(trans-4-Trifluoromethyl-cyclohex-1-yl)-2-{2,6-dichloro-3-[(2,2-dimethyl-propionylamino)-methyl]-phenylamino}-6-(2,2-difluoro-ethoxy)-1-methyl-1H-benzimidazole-5-carboxylic acid amide] | > 9.00 | 8.70
CC(C)(C)C(=O)NCc1ccc(Cl)c(Nc2nc3cc(C(=O)N[C@H]4CC[C@H](C(F)(F)F)CC4)c(OCC(F)F)cc3[nH]2)c1Cl [Example 2, N-(trans-4-Trifluoromethyl-cyclohex-1-yl)-2-{2,6-dichloro-3-[(2,2-dimethyl-propionylamino)-methyl]-phenylamino}-6-(2,2-difluoro-ethoxy)-1H-benzimidazole-5-carboxylic acid amide] | 8.52 | 8.70
Cn1c(Nc2c(Cl)ccc(CNC(=O)C(C)(C)C)c2Cl)nc2cc(C(=O)N[C@H]3CC[C@H](C(F)(F)F)CC3)c(F)cc21 [Example 3, N-(trans-4-Trifluoromethyl-cyclohex-1-yl)-2-{2,6-dichloro-3-[(2,2-dimethyl-propionylamino)-methyl]-phenylamino}-6-fluoro-1-methyl-1H-benzimidazole-5-carboxylic acid amide] | 9.00 | 8.40
CC(C)(C)C(=O)NCc1ccc(Cl)c(Nc2nc3cc(C(=O)Nc4ccc(Br)cc4)c(OCC(F)F)cc3[nH]2)c1Cl [Example 4, N-(4-Bromo-phenyl)-2-{2,6-dichloro-3-[(2,2-dimethyl-propionylamino)-methyl]-phenylamino}-6-(2,2-difluoro-ethoxy)-1H-benzimidazole-5-carboxylic acid amide] | 8.70 | 8.40
Cn1c(Nc2c(Cl)ccc(CNC(=O)C(C)(C)C)c2Cl)nc2cc(C(=O)Nc3ccc(Br)cc3)c(OCC(F)F)cc21 [Example 5, N-(4-Bromo-phenyl)-2-{2,6-dichloro-3-[(2,2-dimethyl-propionylamino)-methyl]-phenylamino}-6-(2,2-difluoro-ethoxy)-1-methyl-1H-benzimidazole-5-carboxylic acid amide] | > 9.00 | 8.70
Cn1c(Nc2c(Cl)ccc(CNC(=O)C(C)(C)C)c2F)nc2cc(C(=O)Nc3ccc(Br)cc3)c(OCC(F)F)cc21 [Example 8] | > 9.00 | 8.52
Cn1c(Nc2c(F)ccc(CNC(=O)C(C)(C)C)c2F)nc2cc(C(=O)Nc3ccc(Br)cc3)c(F)cc21 [Example 9] | 7.10 | 8.40
Cn1c(Nc2c(F)ccc(CNC(=O)C(C)(C)C)c2F)nc2cc(C(=O)N[C@H]3CC[C@H](C(F)(F)F)CC3)c(F)cc21 [Example 10] | 8.40 | 8.15
CC(C)(C)C(=O)NCc1ccc(Cl)c(Nc2nc3cc(C(=O)N[C@H]4CC[C@H](C(F)(F)F)CC4)c(F)cc3[nH]2)c1Cl [Example 12, N-(trans-4-Trifluoromethyl-cyclohex-1-yl)-2-{2,6-dichloro-3-[(2,2-dimethyl-propionylamino)-methyl]-phenylamino}-6-fluoro-1H-benzimidazole-5-carboxylic acid amide] | 8.15 | 8.40
Cn1c(Nc2c(Cl)ccc(CNC(=O)OC(C)(C)C)c2Cl)nc2cc(C(=O)N[C@H]3CC[C@H](C(F)(F)F)CC3)c(OCC(F)F)cc21 [Example 13, N-(trans-4-Trifluoromethyl-cyclohex-1-yl)-2-{2,6-dichloro-3-[(tert-butoxy-carbonylamino)-methyl]-phenylamino}-6-(2,2-difluoroethoxy)-1-methyl-1H-benzimidazole-5-carboxylic acid amide] | 7.55 | 8.52
Cc1ccc(CNC(=O)C(C)(C)C)c(C)c1Nc1nc2cc(C(=O)N[C@H]3CC[C@H](C(F)(F)F)CC3)c(OCC(F)F)cc2n1C [Example 14, N-(trans-4-Trifluoromethyl-cyclohex-1-yl)-2-{2,6-dimethyl-3-[(2,2-dimethyl-propionylamino)-methyl]-phenylamino}-6-(2,2-difluoroethoxy)-1-methyl-1H-benzimidazole-5-carboxylic acid amide] | 8.30 | 9.00
Cn1c(Nc2c(Cl)ccc(CNC(=O)OC(C)(C)C)c2Cl)nc2cc(C(=O)Nc3ccc(F)c(Cl)c3)c(OCC(F)F)cc21 [Example 15] | 7.96 | 8.52
Cn1c(Nc2c(Cl)ccc(CNC(=O)OC(C)(C)C)c2Cl)nc2cc(C(=O)NCC(F)(F)F)c(OCC(F)F)cc21 [Example 16] | 6.97 | 8.30
Cn1c(Nc2c(Cl)ccc(CNC(=O)C(C)(C)C)c2Cl)nc2cc(C(=O)Nc3cccc(Cl)c3)c(F)cc21 [Example 18] | 8.40 | 9.00
Cn1c(Nc2c(Cl)ccc(CNC(=O)C(C)(C)C)c2Cl)nc2cc(C(=O)Nc3ccc(Cl)c(F)c3)c(F)cc21 [Example 19] | 8.70 | 9.00
Cn1c(Nc2c(Cl)ccc(CNC(=O)C(C)(C)C)c2Cl)nc2cc(C(=O)NC3CC(F)(F)C3)c(F)cc21 [Example 20] | 7.85 | 8.52
Cn1c(Nc2c(Cl)ccc(CNC(=O)C(C)(C)C)c2Cl)nc2cc(C(=O)NCC(F)(F)F)c(F)cc21 [Example 21] | 7.44 | 8.52
Cn1c(Nc2c(Cl)ccc(CNC(=O)C(C)(C)C)c2Cl)nc2cc(C(=O)Nc3cc(Cl)ccc3Cl)c(F)cc21 [Example 22] | 9.00 | 8.70
Cn1c(Nc2c(Cl)ccc(CNC(=O)C(C)(C)C)c2Cl)nc2cc(C(=O)Nc3cc(F)cc(Cl)c3)c(F)cc21 [Example 23] | > 9.00 | 9.00
CC(C)(C)C(=O)NCc1ccc(F)c(Nc2nc3cc(C(=O)Nc4ccc(F)c(Cl)c4)c(F)cc3[nH]2)c1F [Example 24] |  | 8.52
Cn1c(Nc2c(F)ccc(CNC(=O)C(C)(C)C)c2F)nc2cc(C(=O)N[C@H]3CC[C@H](C(F)(F)F)CC3)c(OCC(F)F)cc21 [Example 25] | 8.05 | 8.70
Cn1c(Nc2c(F)ccc(CNC(=O)C(C)(C)C)c2F)nc2cc(C(=O)Nc3ccc(F)c(Cl)c3)c(OCC(F)F)cc21 [Example 26] | 7.96 | 8.70
Cn1c(Nc2c(F)ccc(CNC(=O)C(C)(C)C)c2F)nc2cc(C(=O)NCC(F)(F)F)c(OCC(F)F)cc21 [Example 27] | 6.91 | 8.40
Cn1c(Nc2c(Cl)ccc(CNC(=O)C(C)(C)C)c2Cl)nc2cc(C(=O)Nc3ccc(F)c(Cl)c3)c(OCC(F)F)cc21 [Example 29] | > 9.00 | 8.40
Cn1c(Nc2c(Cl)ccc(CNC(=O)C(C)(C)C)c2Cl)nc2cc(C(=O)Nc3cccc(Cl)c3)c(OCC(F)F)cc21 [Example 30] | > 9.00 | 8.40
Cn1c(Nc2c(Cl)ccc(CNC(=O)C(C)(C)C)c2Cl)nc2cc(C(=O)Nc3cccc(F)c3)c(OCC(F)F)cc21 [Example 31] | 9.00 | 8.52
Cn1c(Nc2c(Cl)ccc(CNC(=O)C(C)(C)C)c2Cl)nc2cc(C(=O)NC3CCC3)c(OCC(F)F)cc21 [Example 32] | 9.00 | 8.52
